What is called IC50 is the point on the concentration scale where inhibition reaches its midpoint.

The target of the test is T1, recombinant human GST-Syk (Homo sapiens, UniProt P43405).
T1 construct: purchased Carna Biosciences 08-176
The test can be described thus: Homogeneous Time-Resolved Fluorescence (HTRF) assay for the recombinant human Syk enzyme. Format: biochemical. Particulars: recombinant human GST-Syk 5 pM, ATP 25 μM, 10-dose titration 10 μM to 0.508 nM; read-out: rhSYK Activity IC50. The procedure, abridged: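 GST-hSyk fusion protein phosphorylated a peptide for 45 min at room temperature. The reaction was quenched with 2 nM Eu-anti-phosphotyrosine antibody and 70 nM SA-APC in 15 mM Tris pH 7.5, 40 mM EDTA, 0.01% Tween 20. The HTRF signal was read after 30 min.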
Take `Cc1cc(Nc2cc(C(F)(F)F)ccn2)nc(-c2cn(CC#N)nn2)c1` [Example 5.92, [4-(4-methyl-6-{[4-(trifluoromethyl)pyridin-2-yl]amino}pyridin-2-yl)-1H-1,2,3-triazol-1-yl]acetonitrile]: the IC50 came to 22 nM. On to “4-{1-[4-(6-{[4-(cyclohexyloxy)pyridin-2-yl]amino}-4-methylpyridin-2-yl)-1H-1,2,3-triazol-1-yl]ethyl}benzoic acid [Example 2.7]”, for which the IC50 is 16.7 nM.

Take `Cc1cc(Nc2nccc(C(F)F)n2)cc(-c2cn(C3CCCC(C)(O)C3O)nn2)c1` (single isomer, unassigned) [Example 29.2, 3-(4-(3-((4-(Difluoromethyl)pyrimidin-2-yl)amino)-5-methylphenyl)-1H-1,2,3-triazol-1-yl)-1-methylcyclohexane-1,2-diol]: the IC50 is 30.7 nM. The same measure for `Cc1cc(Nc2ncc(Cl)c(C)n2)cc(-c2cn(CC(C)(O)C(C)(C)O)nn2)c1` (centres unmarked) [Example 21.30, 1-(4-{3-[(5-chloro-4-methylpyrimidin-2-yl)amino]-5-methylphenyl}-1H-1,2,3-triazol-1-yl)-2,3-dimethylbutane-2,3-diol]: 88.5 nM.

On to `Cc1cc(Nc2nccc(C(F)(F)F)n2)cc(-c2cn(C(C)C(O)CC#N)nn2)c1` (single isomer, unassigned) [Example 4.9, 3-hydroxy-4-[4-(3-methyl-5-{[4-(trifluoromethyl)pyrimidin-2-yl]amino}phenyl)-1H-1,2,3-triazol-1-yl]pentanenitrile], for which the IC50 was 25.2 nM. The same measure for `Cc1cc(Nc2cc(C(F)F)ccn2)nc(-c2cn(CC3(C)CNC(=O)O3)nn2)c1` (single isomer, unassigned) [Example 7.9, 5-((4-(6-((4-(difluoromethyl)pyridin-2-yl)amino)-4-methylpyridin-2-yl)-1H-1,2,3-triazol-1-yl)methyl)-5-methyloxazolidin-2-one]: 8.4 nM; for `Cc1cc(Nc2cc(C(F)(F)F)ccn2)nc(-c2cn(C(C(N)=O)c3ccc(F)cc3)nn2)c1` (centres unmarked) [Example 1.17, 2-(4-fluorophenyl)-2-[4-(4-methyl-6-{[4-(trifluoromethyl)pyridin-2-yl]amino}pyridin-2-yl)-1H-1,2,3-triazol-1-yl]acetamide]: 4.4 nM. In the case of `Cc1cc(Nc2cc(C(F)(F)F)ccn2)nc(-c2cn(CC(O)C(C)O)nn2)c1` (centres unmarked) [Example 10.13, 1-[4-(4-methyl-6-{[4-(trifluoromethyl)pyridin-2-yl]amino}pyridin-2-yl)-1H-1,2,3-triazol-1-yl]butane-2,3-diol], the IC50 turned out to be 18.8 nM. The same measure for `Cc1cc(Nc2cc(C(F)F)ccn2)nc(-c2cn(CC(C)(O)CC#N)nn2)c1` (single isomer, unassigned) [Example 23.1, 4-(4-(6-((4-(difluoromethyl)pyridin-2-yl)amino)-4-methylpyridin-2-yl)-1H-1,2,3-triazol-1-yl)-3-hydroxy-3-methylbutanenitrile]: 7.3 nM. In the case of `Cc1cc(Nc2nccc(C(F)F)n2)cc(-c2cn(CC3OC(=O)NC34CC4)nn2)c1` (single isomer, unassigned) [Example 7.17, 7-((4-(3-((4-(difluoromethyl)pyrimidin-2-yl)amino)-5-methylphenyl)-1H-1,2,3-triazol-1-yl)methyl)-6-oxa-4-azaspiro[2.4]heptan-5-one], the IC50 amounted to 1.1 nM.

Consider `Cc1cc(Nc2cc(C(F)F)ccn2)nc(-c2cn(C3CCCCC3O)nn2)c1` (single isomer, unassigned) [Example 7.24, 2-[4-(6-{[4-(difluoromethyl)pyridin-2-yl]amino}-4-methylpyridin-2-yl)-1H-1,2,3-triazol-1-yl]cyclohexanol], for which the IC50 amounted to 1.2 nM. The same measure for `Cc1cc(Nc2cc(C(F)(F)F)ccn2)nc(-c2cn(C(C)C(=O)N3CCc4cc(O)c(O)cc4C(c4ccccc4)C3)nn2)c1` (centres unmarked) [Example 1.54, 3-{2-[4-(4-methyl-6-{[4-(trifluoromethyl)pyridin-2-yl]amino}pyridin-2-yl)-1H-1,2,3-triazol-1-yl]propanoyl}-1-phenyl-2,3,4,5-tetrahydro-1H-3-benzazepine-7,8-diol]: 134 nM; for `Cc1cc(Nc2cc(C(F)(F)F)ccn2)nc(-c2cn(CCCO)nn2)c1` [Example 5.94, 3-[4-(4-methyl-6-{[4-(trifluoromethyl)pyridin-2-yl]amino}pyridin-2-yl)-1H-1,2,3-triazol-1-yl]propan-1-ol]: 474 nM. The same measure for `Cc1cc(Nc2nccc(C(F)(F)F)n2)cc(-c2cn(CC(C)(O)CO)nn2)c1` (single isomer, unassigned) [Example 21.3, 2-methyl-3-[4-(3-methyl-5-{[4-(trifluoromethyl)pyrimidin-2-yl]amino}phenyl)-1H-1,2,3-triazol-1-yl]propane-1,2-diol]: 7 nM. The same measure for `Cc1cc(Nc2nccc(C(F)F)n2)cc(-c2cn(C3CCCC(O)C3O)nn2)c1` (single isomer, unassigned) [Example 25.1, 3-(4-(3-((4-(Difluoromethyl)pyrimidin-2-yl)amino)-5-methylphenyl)-1H-1,2,3-triazol-1-yl)cyclohexane-1,2-diol]: 9.5 nM. In the case of `Cc1cc(Nc2cc(C(F)F)ccn2)nc(-c2cn(CC3OC(=O)NC3C)nn2)c1` (single isomer, unassigned) [Example 7.14, 5-((4-(6-((4-(difluoromethyl)pyridin-2-yl)amino)-4-methylpyridin-2-yl)-1H-1,2,3-triazol-1-yl)methyl)-4-methyloxazolidin-2-one], the IC50 was 1.6 nM. Take `COC(=O)CCn1cc(-c2cc(C)cc(Nc3cc(C(F)(F)F)ccn3)n2)nn1` [Example 5.10, methyl 3-[4-(4-methyl-6-{[4-(trifluoromethyl)pyridin-2-yl]amino}pyridin-2-yl)-1H-1,2,3-triazol-1-yl]propanoate]: the 50% inhibitory concentration (IC50) was determined as 40.4 nM.

Turning to `Cc1cc(Nc2cc(OC3CCOC3)ccn2)nc(-c2cn(C(C)c3ccc(C(=O)O)cc3)nn2)c1` (centres unmarked) [Example 2.5, 4-{1-[4-(4-methyl-6-{[4-(tetrahydrofuran-3-yloxy)pyridin-2-yl]amino}pyridin-2-yl)-1H-1,2,3-triazol-1-yl]ethyl}benzoic acid], the IC50 was 132 nM. The same measure for `Cc1cc(Nc2cc(C(F)(F)F)ccn2)nc(-c2cn(C3(CO)CCC3)nn2)c1` [Example 13.6, {1-[4-(4-methyl-6-{[4-(trifluoromethyl)pyridin-2-yl]amino}pyridin-2-yl)-1H-1,2,3-triazol-1-yl]cyclobutyl}methanol]: 3.2 nM; for `Cc1cc(Nc2cc(C(F)(F)F)ccn2)nc(-c2cn(C(C)C(=O)NCCc3cn(C)c4ccccc34)nn2)c1` (centres unmarked) [Example 1.51, N-[2-(1-methyl-1H-indol-3-yl)ethyl]-2-[4-(4-methyl-6-{[4-(trifluoromethyl)pyridin-2-yl]amino}pyridin-2-yl)-1H-1,2,3-triazol-1-yl]propanamide]: 186 nM; for `Cc1ccnc(Nc2cc(C)cc(-c3cn(C[C@H](O)CC#N)nn3)n2)c1` [Example 5.14, (3R)-3-hydroxy-4-(4-{4-methyl-6-[(4-methylpyridin-2-yl)amino]pyridin-2-yl}-1H-1,2,3-triazol-1-yl)butanenitrile]: 23.4 nM.

On to `Cc1cc(Nc2cc(C(F)(F)F)ccn2)nc(-c2cn(CC3(O)CCOCC3)nn2)c1` [Example 4.13, 4-{[4-(4-methyl-6-{[4-(trifluoromethyl)pyridin-2-yl]amino}pyridin-2-yl)-1H-1,2,3-triazol-1-yl]methyl}tetrahydro-2H-pyran-4-ol], for which the IC50 is 25.6 nM. The same measure for `Cc1cc(Nc2cc(C(F)(F)F)ccn2)nc(-c2cn(CCC(N)=O)nn2)c1` [Example 1.3, 3-[4-(4-methyl-6-{[4-(trifluoromethyl)pyridin-2-yl]amino}pyridin-2-yl)-1H-1,2,3-triazol-1-yl]propanamide]: 3.8 nM; for `Cc1cc(Nc2cc(C(F)(F)F)ccn2)nc(-c2cn(C(C)C(=O)NCCc3c[nH]c4ccccc34)nn2)c1` (centres unmarked) [Example 1.29]: 124 nM. The same measure for `Cc1cc(Nc2nccc(C(F)(F)F)n2)cc(-c2cn(C3COCC3O)nn2)c1` (single isomer, unassigned) [Example 4.4, 4-[4-(3-methyl-5-{[4-(trifluoromethyl)pyrimidin-2-yl]amino}phenyl)-1H-1,2,3-triazol-1-yl]tetrahydrofuran-3-ol]: 26.1 nM; for `Cc1cc(Nc2cc(C(F)(F)F)ccn2)nc(-c2cn(CC(O)CN3CCOC3=O)nn2)c1` (centres unmarked) [Example 4.33, 3-{2-hydroxy-3-[4-(4-methyl-6-{[4-(trifluoromethyl)pyridin-2-yl]amino}pyridin-2-yl)-1H-1,2,3-triazol-1-yl]propyl}-1,3-oxazolidin-2-one]: 14.9 nM. The same measure for `Cc1cc(Nc2nccc(C(F)(F)F)n2)cc(-c2cn(CC(=O)NC(C)(C)C)nn2)c1` [Example 5.70, N-tert-butyl-2-[4-(3-methyl-5-{[4-(trifluoromethyl)pyrimidin-2-yl]amino}phenyl)-1H-1,2,3-triazol-1-yl]acetamide]: 183 nM. For `Cc1cc(Nc2cc(C(F)(F)F)ccn2)nc(-c2cn(C(C)C(=O)N3CCc4onc(-c5ccc(F)cc5)c4C3)nn2)c1` (centres unmarked) [Example 1.39, 6-(1-{2-[3-(4-fluorophenyl)-6,7-dihydroisoxazolo[4,5-c]pyridin-5(4H)-yl]-1-methyl-2-oxoethyl}-1H-1,2,3-triazol-4-yl)-4-methyl-N-[4-(trifluoromethyl)pyridin-2-yl]pyridin-2-amine], the IC50 came to 367 nM. The same measure for `Cc1cc(Nc2cc(C(C)F)ccn2)nc(-c2cn(CC(C)(O)C(C)(C)O)nn2)c1` (centres unmarked) [Example 21.32, 1-[4-(6-{[4-(1-fluoroethyl)pyridin-2-yl]amino}-4-methylpyridin-2-yl)-1H-1,2,3-triazol-1-yl]-2,3-dimethylbutane-2,3-diol]: 22.2 nM.

Values taken from US9586931B2 (Merck Sharp & Dohme Corp., priority 2012, dated 2017).
